The source of these data is PubChem BioAssay AID1996.

SMILES strings stand for the structures. In brackets after ≈: the same amount, converted by molar mass. Some results are limits rather than exact numbers.

For the data set the following is noted: buffer; pH 7.4; 200.0 µM.
Compound `N#Cc1ccccc1NC(=O)CN1CCOCC1` had a kinetic solubility of more than 36.8 µg/mL.

Turning to `COC(=O)CC1C(=O)NCCN1C(=O)c1c(F)cccc1F` (configuration not stated), the kinetic solubility was more than 46.8 µg/mL.

In turn, `O=C(Nc1nccs1)OCc1ccccc1` had a solubility (kinetic) of 12.8 µg/mL (≈ 54.6 µM).

For the compound `CC(C)CNS(=O)(=O)c1ccc(CCC(=O)NCCc2ccccc2)cc1`, the solubility (kinetic) is 16.3 µg/mL (≈ 42 µM).

Regarding `COc1ccc(C(=O)CCN2CCCC(C)C2)cc1.Cl` (configuration not stated), the solubility (kinetic) was more than 44.7 µg/mL.

In the case of `COc1ccc(/C=C/C(=O)O)cc1S(=O)(=O)N1CCc2ccccc21`, the solubility (kinetic) was more than 53.9 µg/mL.

`COc1ccccc1NS(=O)(=O)c1cccc(NS(=O)(=O)c2ccc(Cl)c(C(=O)O)c2)c1`: the kinetic solubility was more than 74.5 µg/mL.

On to `COC(=O)c1ccc(N2CCN(C(=O)C3CC3)CC2)c([N+](=O)[O-])c1`, for which the solubility (kinetic) is more than 50 µg/mL.

`O=C(O)c1cc(-c2ccccc2Cl)n(-c2ccccc2)n1` gave a kinetic solubility of more than 44.8 µg/mL.

`Cc1ccnc(S(=O)(=O)Cc2ccc([N+](=O)[O-])cc2)n1` had a solubility (kinetic) of more than 44 µg/mL.

The compound `OC(c1nc2ccccc2[nH]1)C(O)c1nc2ccccc2[nH]1` (configuration not stated) registered a kinetic solubility of more than 44.1 µg/mL.

As for `Cc1ccc(CNC(=O)c2ccc(N(C)C)cc2)cc1`, the solubility (kinetic) turned out to be 3.2 µg/mL (≈ 11.9 µM).

As to `Cc1cccc(C(=O)Nc2cc(NC(=O)c3cccs3)ccc2C)c1`, the solubility (kinetic) turned out to be 2 µg/mL (≈ 5.71 µM).

With `OCCC1CN(C/C=C/c2ccco2)CCN1Cc1ccccc1` (configuration not stated), the solubility (kinetic) is 40 µg/mL (≈ 123 µM).

Compound `CC(OC(=O)CC1CCCCC1)C(=O)Nc1ccc(F)cc1` (configuration not stated) gave a solubility (kinetic) of 1.2 µg/mL (≈ 3.9 µM).

Compound `COC(=O)c1cc(NC(=O)COC(=O)C2COc3ccccc3O2)cc(C(=O)OC)c1` (configuration not stated) displayed a kinetic solubility of 54.7 µg/mL (≈ 127 µM).

`Cc1nccn1-c1ccc(C=O)cc1` displayed a kinetic solubility of 27.6 µg/mL (≈ 148 µM).

`CC(C)(C)c1ccc(C(=O)NCC(=O)NCc2ccccn2)cc1` returned a solubility (kinetic) of 42.9 µg/mL (≈ 132 µM).

Regarding `CSc1ncc(C(=O)Nc2ccc(C(C)=O)cc2)c(C)n1`, the kinetic solubility is more than 45.2 µg/mL.

In the case of `O=C(COc1ccc2ccccc2c1)Nc1nccs1`, the kinetic solubility stood at 3.9 µg/mL (≈ 13.7 µM).

For `CCC1(CC)NC(=O)N(CC(=O)Nc2ccc(OCc3ccccc3)cc2)C1=O`, the kinetic solubility is 8.9 µg/mL (≈ 22.5 µM).

Compound `COc1cccc(OC)c1C(=O)Nc1sc2c(c1C#N)CCC2` returned a kinetic solubility of 0.7 µg/mL (≈ 2.13 µM).

Take `O=C(CNC(=O)c1ccccc1)Oc1ccc([N+](=O)[O-])cc1`: the solubility (kinetic) is more than 45 µg/mL.

`COc1ccc(C(=O)NC(C)C2CC3CCC2C3)c(OC)c1` (configuration not stated) gave a solubility (kinetic) of more than 45.5 µg/mL.

`COc1ccc2cc(C(=O)N3CCN(C)CC3)[nH]c2c1` had a kinetic solubility of more than 41 µg/mL.

For `CCc1ccc(-n2c([O-])c(C(C)=O)c(=O)[nH]c2=O)cc1.C[NH+](C)C`, the solubility (kinetic) stood at 38.5 µg/mL.

As to `Cc1ccc(NC(=O)CN(C)C(=O)COc2cccc3cccnc23)cc1`, the solubility (kinetic) was found to be 52.4 µg/mL (≈ 144 µM).

Regarding `Cc1cc(Cl)nc(NC(=O)Nc2cccc(Cl)c2)n1`, the kinetic solubility is less than 0.2 µg/mL.

`Nc1ccccc1SC/C=C/CSc1ccccc1N` came in with a kinetic solubility of 12.8 µg/mL (≈ 42.3 µM).

The compound `Cc1ccc(OCCn2cc(C(=O)O)c3ccccc32)cc1` came in with a solubility (kinetic) of 44.3 µg/mL (≈ 150 µM).

Turning to `CSc1ccccc1NC(=O)CN(C)CC(=O)Nc1ccc(S(=O)(=O)N2CCCC2)cc1`, the kinetic solubility turned out to be 1.3 µg/mL (≈ 2.73 µM).

Take `CC1CCCCN1C(=O)COC(=O)/C=C/c1ccc2ccccc2n1` (configuration not stated): the solubility (kinetic) came to 25.1 µg/mL (≈ 74.2 µM).

`CN(CC(=O)Nc1cccnc1Cl)S(=O)(=O)c1ccc(Cl)cc1`: the kinetic solubility was determined as 24.9 µg/mL (≈ 66.5 µM).

As to `COCCCn1c(=O)c2sccc2n(Cc2ccc(C)cc2)c1=O`, the kinetic solubility was less than 0.4 µg/mL.

The compound `CC1CCCCN1C(=O)c1ccc(Br)o1` (configuration not stated) displayed a kinetic solubility of 37.7 µg/mL (≈ 139 µM).

`S=C1NCN(Cc2ccco2)CN1Cc1ccco1` displayed a kinetic solubility of 40.3 µg/mL (≈ 145 µM).

With `CC(NC(=O)c1cc(F)c(F)cc1Cl)C1CC2CCC1C2` (configuration not stated), the kinetic solubility is 5.6 µg/mL (≈ 17.8 µM).

Turning to `Cc1ccccc1OCC(=O)OCC(=O)NC1CC1`, the solubility (kinetic) is more than 39.5 µg/mL.

The compound `O=C(O)c1cccnc1SCC(=O)N1CCCc2ccccc21` registered a kinetic solubility of 47 µg/mL (≈ 143 µM).

Consider `COc1ccc(N2C(=O)C(C)C(Cc3ccc(C)cc3)C2=O)cc1` (configuration not stated), for which the kinetic solubility was determined as 2.4 µg/mL (≈ 7.42 µM).

Take `O=C(/C=C/c1ccccc1)OCCN=C1NS(=O)(=O)c2ccccc21`: the kinetic solubility was determined as 8.6 µg/mL (≈ 24.1 µM).

`CC(C)OC(=O)CC1C(=O)NCCN1C(=O)COc1ccc(C(C)(C)C)cc1` (configuration not stated) displayed a solubility (kinetic) of 49.4 µg/mL (≈ 127 µM).

Consider `O=P(C(Cl)Cl)(N1CCOCC1)N1CCOCC1`, for which the solubility (kinetic) is more than 45.5 µg/mL.

Compound `CC(C)(C)c1ccc(C(=O)NC2CCN(Cc3ccccc3)CC2)cc1` showed a solubility (kinetic) of 36.5 µg/mL (≈ 104 µM).

Compound `COc1ccc(NC(=O)CCCc2ccc(OC)c(C)c2)cc1` came in with a kinetic solubility of 2.1 µg/mL (≈ 6.7 µM).

The compound `CCCC(=O)Nc1nnc(SCC(=O)N2CCCCC2)s1` had a kinetic solubility of more than 49.3 µg/mL.

`Cc1ccc(Cl)c(N/C=C/C(=O)c2ccccc2)c1` returned a kinetic solubility of less than 0.6 µg/mL.

Consider `CSc1cccc(NS(=O)(=O)c2cn(C)cn2)c1`, for which the kinetic solubility stood at 14.2 µg/mL (≈ 50.1 µM).

The compound `Cc1cccc(C(=O)OCC(=O)N2CC(C)CC(C)C2)c1C` (configuration not stated) gave a kinetic solubility of more than 45.5 µg/mL.

For the compound `CCS(=O)(=O)N1CCN=C1SCc1ccccc1`, the solubility (kinetic) was more than 42.7 µg/mL.

Consider `O=C(O)C1CCCCC1C(=O)Nc1ccc(OCc2ccccc2)cc1` (configuration not stated), for which the solubility (kinetic) turned out to be 44.2 µg/mL (≈ 125 µM).

In turn, `Cc1ccccc1C(=O)NC1CCN(CC(=O)N2CCCCC2C)CC1` (configuration not stated) yielded a solubility (kinetic) of more than 53.6 µg/mL.

The term solubility (kinetic) denotes solubility judged after dilution from a stock solution rather than from solid.
